Measurements from US6482921B1, “Uridyl peptide antibiotic (UPA) derivatives, their synthesis and use” (Essential Therapeutics, Inc., priority 1999, dated 2002).
Values after ≈ are worked out from the molar mass of the structure shown.

Tests used:
Type in all cases: cell-based
[1] = test system: Pseudomonas aeruginosa PAM 1020; experiment: MIC broth microdilution, P. aeruginosa PAM 1020 (wild type); details: P. aeruginosa PAM 1020
[2] = test system: Pseudomonas aeruginosa PAM 1154; experiment: MIC broth microdilution, P. aeruginosa PAM 1154 (OprM::Hg); details: P. aeruginosa PAM 1154 OprM::Hg
[3] = test system: Pseudomonas aeruginosa PAM 1135; experiment: MIC broth microdilution, P. aeruginosa PAM 1135 (high level UPA resistance); details: P. aeruginosa PAM 1135 UPA1^r
[4] = test system: Pseudomonas aeruginosa PAM 1323; experiment: MIC broth microdilution, P. aeruginosa PAM 1323 (medium level UPA resistance)
Escherichia Coli MC 4100 = experiment: MIC broth microdilution, E. coli MC 4100 (wild type); details: E. coli MC 4100
[5] = test system: Escherichia Coli MC 4100 AcrAB; experiment: MIC broth microdilution, E. coli MC 4100 AcrAB (ΔAcrAB); details: E. coli AcrAB
[6] = test system: Escherichia Coli MC 4100 AcrAB UPA3r; experiment: MIC broth microdilution, E. coli MC 4100 AcrAB UPA3r (ΔAcrAB, UPA resistant); details: E. coli AcrAB UPA3^r
[7] = test system: Staphylococcus aureus ATCC 29213; experiment: MIC broth microdilution, S. aureus ATCC 29213 (wild type); details: S. aureus ATCC 29213
[8] = test system: Staphylococcus aureus 8325-4; experiment: MIC broth microdilution, S. aureus 8325-4 (wild type); details: S. aureus 8325-4
[9] = test system: Pasteurella multocida pm002; experiment: MIC broth microdilution, P. multocida pm002 (wild type)

Row | SMILES | MIC (μg/ml) Broth microdilution [1] | MIC (μg/ml) Broth microdilution [2] | MIC (μg/ml) Broth microdilution [3] | MIC (μg/ml) Broth microdilution [4] | MIC (μg/ml) Broth microdilution (Escherichia Coli MC 4100) | MIC (μg/ml) Broth microdilution [5] | MIC (μg/ml) Broth microdilution [6] | MIC (μg/ml) Broth microdilution [7] | MIC (μg/ml) Broth microdilution [8] | MIC (μg/ml) Broth microdilution [9]
1 | CC(NC(=O)NC(Cc1c[nH]c2ccccc12)C(=O)O)C(=O)NC(C(=O)NCC1CC(O)C(n2ccc(=O)[nH]c2=O)O1)C(C)N(C)C(=O)CN [Compound 121, 1-[5′1-[(2S,3S)-N^2-[N-[[(1S)-1-Carboxy-2-indol-3-ylethyl)carbamoyl]-L-alanyl]-N^3-glycyl-N^3-methyl-2,3-diaminobutyramido]-3′,5′-dideoxy-α-L-arabinofuranosyl]uracil] | 64 µg/mL (≈ 91.5 µM) | 4 µg/mL (≈ 5.72 µM) | >512 µg/mL | >512 µg/mL | >512 µg/mL | 2 µg/mL (≈ 2.86 µM) | 16 µg/mL (≈ 22.9 µM) | >512 µg/mL | >512 µg/mL | >512 µg/mL
2 | CC(N)C(=O)N(C)C(C)C(NC(=O)C(Cc1ccccc1)NC(=O)NC(Cc1ccccc1)C(=O)O)C(=O)NCC1CC(O)C(n2ccc(=O)[nH]c2=O)O1 [Compound 122, 1-[5′-[[(2S,3S)-N^3-L-Alanyl-N^2-[N-[[(1S)-1-carboxy-phenethyl]carbamoyl]-L-phenylalanyl]-N^3-methyl-2,3-diaminobutyramido]-3′,5′-dideoxy-α-L-arabinofuranosyl]uracil] | 64 µg/mL (≈ 85.2 µM) | 16 µg/mL (≈ 21.3 µM) | >512 µg/mL | >512 µg/mL | >512 µg/mL | 4 µg/mL (≈ 5.33 µM) | 64 µg/mL (≈ 85.2 µM) | >512 µg/mL | 512 µg/mL (≈ 682 µM) | >512 µg/mL
3 | CC(C(NC(=O)C(Cc1ccccc1)NC(=O)NC(Cc1c[nH]c2ccccc12)C(=O)O)C(=O)NCC1CC(O)C(n2ccc(=O)[nH]c2=O)O1)N(C)C(=O)CCCCN [Compound 123, 1-[5′-[(2S,3S)-N^3-(5-Aminopentanoyl)-N^2-[N-[[(1S)-1-carboxy-2-indol-3-ylethyl]carbamoyl]-L-phenylalanyl]-N^3-methyl-2,3-diaminobutyramido]-3′,5′-dideoxy-α-L-arabinofuranosyl]uracil] | 32 µg/mL (≈ 39.1 µM) | 16 µg/mL (≈ 19.6 µM) | 256 µg/mL (≈ 313 µM) | 256 µg/mL (≈ 313 µM) | 512 µg/mL (≈ 626 µM) | 4 µg/mL (≈ 4.89 µM) | 512 µg/mL (≈ 626 µM) | >512 µg/mL | >512 µg/mL | >512 µg/mL
4 | CC(C(NC(=O)C(Cc1ccc(F)cc1)NC(=O)NC(Cc1ccc(O)cc1)C(=O)O)C(=O)NCC1CC(O)C(n2ccc(=O)[nH]c2=O)O1)N(C)C(=O)CCCCN [Compound 124, 1-[5′-[(2S,3S)-N^3-(5-Aminopentanoyl)-N^2-[N-[[(1S)-1-carboxy-4-hydroxyphenethyl]carbamoyl]-L-4-fluorophenylalanyl]-N^3-methyl-2,3-diaminobutyramido]-3′,5′-dideoxy-α-L-arabinofuranosyl]uracil] | 512 µg/mL (≈ 630 µM) | 128 µg/mL (≈ 157 µM) | >512 µg/mL | >512 µg/mL | 256 µg/mL (≈ 315 µM) | 2 µg/mL (≈ 2.46 µM) | 128 µg/mL (≈ 157 µM) | >512 µg/mL | >512 µg/mL | >512 µg/mL
5 | CC(N)C(=O)N(C)C(C)C(NC(=O)C(Cc1ccccc1)NC(=O)NC(Cc1cccs1)C(=O)O)C(=O)NCC1CC(O)C(n2ccc(=O)[nH]c2=O)O1 [Compound 125, 1-[5′-[(2S,3S)-N^3-L-Alanyl-N^2-[N-[[(1S)-1-carboxy-2-(2-thienyl)ethyl]carbamoyl]-L-phenylalanyl]-N^3-methyl-2,3-diaminobutyramidol-3′,5′-dideoxy-α-L-arabinofuranosyl]uracil] | 64 µg/mL (≈ 84.6 µM) | 8 µg/mL (≈ 10.6 µM) | >512 µg/mL | >512 µg/mL | >512 µg/mL | 8 µg/mL (≈ 10.6 µM) | 64 µg/mL (≈ 84.6 µM) | >512 µg/mL | >512 µg/mL | >512 µg/mL
6 | CC(N)C(=O)N(C)C(C)C(NC(=O)C(Cc1ccc([N+](=O)[O-])cc1)NC(=O)NC(Cc1ccc(O)cc1)C(=O)O)C(=O)NCC1CC(O)C(n2ccc(=O)[nH]c2=O)O1 [Compound 126, 1-[5′-[(2S,3S)-N^3-L-Alanyl-N^2-[N-[[(1S)-1-carboxy-4-hydroxyphenethyl]carbamoyl]-L-4-nitrophenylalanine-N^3-methyl-2,3-diaminobutyramido]-3′,5′-dideoxy-α-L-arabinofuranosyl]uracil] | 128 µg/mL (≈ 158 µM) | 16 µg/mL (≈ 19.7 µM) | >512 µg/mL | >512 µg/mL | 16 µg/mL (≈ 19.7 µM) | <1 µg/mL | 4 µg/mL (≈ 4.93 µM) | 512 µg/mL (≈ 631 µM) | 256 µg/mL (≈ 315 µM) | 512 µg/mL (≈ 631 µM)
7 | CNC(C)C(NC(=O)C(Cc1ccc(F)cc1)NC(=O)NC(Cc1ccc(O)cc1)C(=O)O)C(=O)NCC1CC(O)C(n2ccc(=O)[nH]c2=O)O1 [Compound 127, 1-[5′-[(2S,3S)-N^2-[N-[[(1S)-1-carboxy-4-hydroxyphenethyl)carbamoyl]-L-4-fluorophenylalanyl]-N^3-methyl-2,3-diaminobutyramidol-3′,5′-dideoxy-α-L-arabinofuranosyl]uracil] | >512 µg/mL | 512 µg/mL (≈ 717 µM) | >512 µg/mL | >512 µg/mL | >512 µg/mL | 4 µg/mL (≈ 5.6 µM) | 32 µg/mL (≈ 44.8 µM) | >512 µg/mL | >512 µg/mL | >512 µg/mL
8 | CC(C(NC(=O)C(Cc1ccc(F)cc1)NC(=O)NC(Cc1ccc(O)cc1)C(=O)O)C(=O)NCC1CC(O)C(n2ccc(=O)[nH]c2=O)O1)N(C)C(=O)CN [Compound 129, 1-[5′-[(2S,3S)-N^2-[N-[[(1S)-1-Carboxy-4-hydroxyphenethyl)-L-4-fluorophenylalanyl]-N^3-glycyl-N^3-methyl-2,3-diaminobutyramido]-3′,5′-dideoxy-α-L-arabinofuranosyl]uracil] | 32 µg/mL (≈ 41.5 µM) | 8 µg/mL (≈ 10.4 µM) | >512 µg/mL | >512 µg/mL | 8 µg/mL (≈ 10.4 µM) | <1 µg/mL | 2 µg/mL (≈ 2.59 µM) | >512 µg/mL | 512 µg/mL (≈ 664 µM) | 256 µg/mL (≈ 332 µM)
9 | CC(C(NC(=O)C(Cc1ccc(F)cc1)NC(=O)NC(Cc1ccc(O)cc1)C(=O)O)C(=O)NCC1CC(O)C(n2ccc(=O)[nH]c2=O)O1)N(C)C(=O)c1cccc(N)c1 [Compound 131, 1-[5′-[(2S,3S)-N^3-3-Aminobenzoyl-N^2-[N-[[(1S)-1-carboxy-4-hydroxyphenethyl]carbamoyl]-L-4-fluorophenylalanyl]-N^3-methyl-2,3-diaminobutyramido]-3′,5′-dideoxy-α-Larabinofuranosyl]uracil] | 512 µg/mL (≈ 615 µM) | 512 µg/mL (≈ 615 µM) | >512 µg/mL | >512 µg/mL | >512 µg/mL | 16 µg/mL (≈ 19.2 µM) | 512 µg/mL (≈ 615 µM) | 512 µg/mL (≈ 615 µM) | >512 µg/mL | >512 µg/mL
10 | CC(N)C(=O)N(C)C(C)C(NC(=O)C(Cc1cscn1)NC(=O)NC(Cc1ccc(O)cc1)C(=O)O)C(=O)NCC1CC(O)C(n2ccc(=O)[nH]c2=O)O1 [Compound 132, 1-[5′-[(2S,3S)-N^3-L-Alanyl-N^2-[N-[[(1S)-1-carboxy-4-hydroxyphenethyl]carbamoyl]-L-thiazolylalanyl]-N^3-methyl-2,3-diaminobutyramido]-3′,5′-dideoxy-α-L-arabinofuranosyl]uracil] | 128 µg/mL (≈ 165 µM) | 32 µg/mL (≈ 41.4 µM) | >512 µg/mL | >512 µg/mL | 256 µg/mL (≈ 331 µM) | 8 µg/mL (≈ 10.3 µM) | 32 µg/mL (≈ 41.4 µM) | >512 µg/mL | >512 µg/mL | >512 µg/mL
